In ChEMBL document CHEMBL1156447, “Cyanidin-3-rutinoside, a natural polyphenol antioxidant, selectively kills leukemic cells by induction of oxidative stress” (J Biol Chem, 2007):
Activity calls are given as the source filed them.

Experiments:
HL-60 [1] = assay: Suppression of induction of apoptosis in human HL60 cells at 80 uM after 18 hrs by Hoechst staining in presence of SP600125; format: functional, cell-based
[2] = Antioxidant activity in Ti(IV)-hydrogen peroxide complex system assessed as inhibition of hydrogen peroxide production; format: functional
[3] = target: T1, c-Jun N-terminal kinase, JNK (Homo sapiens) (UniProt P45983+P53779+P45984); assay: Increase in JNK phosphorylation in N-acetyl-cysteine pretreated human HL60 cells at 80 uM after 8 hrs by immunoblot analysis; format: cell-based; details: HL-60
HL-60 [4] = assay: Suppression of induction of apoptosis in human HL60 cells at 80 uM after 18 hrs by Hoechst staining in presence of hydrogen peroxide; format: functional, cell-based
[5] = target: Bcl-2-like protein 11 (Homo sapiens) (UniProt O43521); assay: Increase in Bim EL phosphorylation in human HL60 cells at 80 uM after 8 hrs by immunoblot analysis; format: cell-based; details: HL-60
HL-60 [6] = assay: Induction of apoptosis in human HL60 cells after 18 hrs by Hoechst 33258 staining; format: functional, cell-based
HL-60 [7] = assay: Increase in intracellular hydrogen peroxide level in human HL60 cells after 1 hr by phenol red method; format: functional, cell-based
PBMC = assay: Antioxidant activity in human PBMC assessed as reduction in intracellular peroxide levels by flow cytometry; format: functional, cell-based
HL-60 [8] = assay: Suppression of induction of apoptosis in human HL60 cells assessed as inhibition of mitochondrial release of cytochrome c at 80 uM after 18 hrs […] in presence of SP600125; format: functional, cell-based
HL-60 [9] = assay: Suppression of induction of apoptosis in human HL60 cells at 80 uM after 18 hrs by Hoechst staining in presence of catalase; format: functional, cell-based
HL-60 [10] = assay: Suppression of induction of apoptosis in human HL60 cells at 80 uM after 18 hrs by Hoechst staining in presence of N-acetyl-cysteine; format: functional, cell-based
[11] = target: T2, Bcl-2 homologous antagonist/killer (Homo sapiens) (UniProt Q16611); assay: Activation of Bak in human HL60 cells assessed as oligomerization and conformational change at 80 uM after 8 hrs by immunostaining; format: functional, cell-based; details: HL-60
T2 sequence (whole entry): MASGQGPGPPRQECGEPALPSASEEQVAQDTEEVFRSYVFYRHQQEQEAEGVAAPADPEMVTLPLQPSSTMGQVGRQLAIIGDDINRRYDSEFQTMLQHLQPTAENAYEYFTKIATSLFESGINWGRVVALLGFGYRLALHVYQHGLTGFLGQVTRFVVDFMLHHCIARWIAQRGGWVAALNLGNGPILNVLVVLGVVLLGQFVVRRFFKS

[12] = target: T3, MAP kinase p38 (Homo sapiens) (UniProt O15264+Q15759+Q16539+P53778); assay: Increase in p38 MAPK phosphorylation in human HL60 cells at 80 uM after 8 hrs by immunoblot analysis; format: cell-based; details: HL-60
HL-60 [13] = assay: Suppression of induction of apoptosis in human HL60 cells at 80 uM after 18 hrs by Hoechst staining in presence of SB-203580; format: functional, cell-based
CCRF-CEM [14] = assay: Induction of apoptosis in human CCRF-CEM cells expressing shRNA against Bim at 80 uM after 24 hrs by Hoechst staining; format: functional, cell-based
[15] = target: T3, MAP kinase p38 (Homo sapiens); assay: Increase in p38 MAPK phosphorylation in N-acetyl-cysteine pretreated human HL60 cells at 80 uM after 2 hrs by immunoblot analysis; details: HL-60
CCRF-CEM [16] = assay: Induction of apoptosis in human CCRF-CEM cells after 18 hrs by Hoechst staining; format: functional, cell-based
[17] = target: T1, c-Jun N-terminal kinase, JNK (Homo sapiens); assay: Increase in JNK phosphorylation in human HL60 cells at 80 uM after 8 hrs by immunoblot analysis; format: cell-based; details: HL-60
HL-60 [18] = assay: Induction of apoptosis in human HL60 cells at 60 uM by Hoechst 33258 staining; format: functional, cell-based; details: TDE = time-dependent effect
HL-60 [19] = assay: Increase in hydrogen peroxide accumulation in human HL60 cells at 80 uM by flow cytometry; format: functional, cell-based
HL-60 [20] = assay: Suppression of induction of apoptosis in human HL60 cells assessed as inhibition of mitochondrial release of Smac at 80 uM after 18 hrs […] in presence of SB-203580; format: functional, cell-based
HL-60 [21] = assay: Suppression of induction of apoptosis in human HL60 cells at 60 uM after 18 hrs in presence of Z-VAD; format: functional, cell-based
HL-60 [22] = assay: Induction of apoptosis in human HL60 cells overexpressing human Bcl2 after 18 hrs by Hoechst staining; format: functional, cell-based
[23] = target: T3, MAP kinase p38 (Homo sapiens); assay: Increase in p38 MAPK phosphorylation in catalase pretreated human HL60 cells at 80 uM after 8 hrs by immunoblot analysis; format: cell-based; details: HL-60
HL-60 [24] = assay: Suppression of induction of apoptosis in human HL60 cells assessed as inhibition of mitochondrial release of Smac at 80 uM after 18 hrs […] in presence of SP600125; format: functional, cell-based
CCRF-CEM [25] = assay: Suppression of induction of apoptosis in human CCRF-CEM cells at 80 uM after 24 hrs by Hoechst staining in presence of catalase; format: functional, cell-based
HL-60 [26] = assay: Suppression of induction of apoptosis in human HL60 cells at 60 uM after 18 hrs in presence of DEVD-CHO; format: functional, cell-based
HL-60 [27] = assay: Induction of apoptosis in human HL60 cells assessed as Smac release at 80 uM by immunoblot analysis; format: functional, cell-based
[28] = Antioxidant activity assessed as inhibition of superoxide production; format: functional
HL-60 [29] = assay: Induction of apoptosis in human HL60 cells overexpressing human Bcl XL after 18 hrs by Hoechst staining; format: functional, cell-based
HL-60 [30] = assay: Suppression of induction of apoptosis in human HL60 cells assessed as inhibition of mitochondrial release of cytochrome c at 80 uM after 18 hrs […] in presence of SB-203580; format: functional, cell-based
CCRF-CEM [31] = assay: Suppression of induction of apoptosis in human CCRF-CEM cells at 80 uM after 24 hrs by Hoechst staining in presence of SB-203580; format: functional, cell-based
[32] = Antioxidant activity assessed as inhibition of peroxyl radical production; format: functional
HL-60 [33] = assay: Induction of apoptosis in human HL60 cells assessed as caspase 9 activation; format: functional, cell-based
[34] = target: T1, c-Jun N-terminal kinase, JNK (Homo sapiens); assay: Increase in JNK catalase pretreated human HL60 cells at 80 uM after 8 hrs by immunoblot analysis; format: cell-based; details: HL-60
CCRF-CEM [35] = assay: Suppression of induction of apoptosis in human CCRF-CEM cells at 80 uM after 24 hrs by Hoechst staining in presence of N-acetyl-cysteine; format: functional, cell-based
Daudi = assay: Induction of apoptosis in human Daudi cells after 18 hrs by Hoechst staining; format: functional, cell-based
HL-60 [36] = assay: Induction of apoptosis in human HL60 cells assessed as cytochrome c release at 80 uM by immunoblot analysis; format: functional, cell-based
HL-60 [37] = assay: Induction of apoptosis in human HL60 cells assessed as caspase 3 activation; format: functional, cell-based
[38] = target: Apoptosis regulator BAX (Homo sapiens) (UniProt Q07812); assay: Activation of Bax in human HL60 cells assessed as mitochondrial translocation at 80 uM after 8 hrs by immunostaining; details: HL-60
MOLT-4 = assay: Induction of apoptosis in human MOLT4 cells after 18 hrs by Hoechst staining; format: functional, cell-based

Measured: Activity

Chain of Apoptosis regulator BAX (Homo sapiens) (Q07812 whole entry): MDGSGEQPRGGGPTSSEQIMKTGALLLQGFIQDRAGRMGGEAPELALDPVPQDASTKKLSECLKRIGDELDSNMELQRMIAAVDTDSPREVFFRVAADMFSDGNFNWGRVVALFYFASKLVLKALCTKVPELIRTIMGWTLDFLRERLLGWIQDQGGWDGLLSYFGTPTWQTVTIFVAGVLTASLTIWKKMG
Chain of Bcl-2-like protein 11 (Homo sapiens) (O43521 whole entry, looked up): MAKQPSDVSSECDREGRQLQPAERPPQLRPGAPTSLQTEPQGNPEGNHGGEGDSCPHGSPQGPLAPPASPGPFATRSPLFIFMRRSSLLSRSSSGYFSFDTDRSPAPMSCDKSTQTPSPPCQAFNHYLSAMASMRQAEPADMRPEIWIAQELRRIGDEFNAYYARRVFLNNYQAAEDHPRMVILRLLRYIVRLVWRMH

C[C@@H]1O[C@@H](OC[C@H]2O[C@@H](Oc3cc4c(O)cc(O)cc4[o+]c3-c3ccc(O)c(O)c3)[C@H](O)[C@@H](O)[C@@H]2O)[C@H](O)[C@H](O)[C@H]1O
inactive: [3] | CCRF-CEM [14] | [15] | HL-60 [22] | [23] | HL-60 [29] | [34]
active: HL-60 [1] | [2] Dose-dependent effect | HL-60 [4] | [5] | HL-60 [6] Dose-dependent effect | HL-60 [7] | PBMC | HL-60 [8] | HL-60 [9] | HL-60 [10] | [11] | [12] | HL-60 [13] | CCRF-CEM [16] | [17] | HL-60 [18] tde | HL-60 [19] | HL-60 [20] | HL-60 [21] | HL-60 [24] | CCRF-CEM [25] | HL-60 [26] | HL-60 [27] | [28] | HL-60 [30] | CCRF-CEM [31] | [32] | HL-60 [33] Dose-dependent effect | CCRF-CEM [35] | Daudi | HL-60 [36] | HL-60 [37] Dose-dependent effect | [38] | MOLT-4
